Test results: PubChem BioAssay (NCI)
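Following 48 hours of exposure in 96-well plates, responses at five concentrations were used to interpolate endpoints linearly. GI50 = concentration required for 50% inhibition of growth. At the TGI there is no net growth.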

How the values were obtained:
Experiment in all cases: DTP human tumour cell line panel, 48 h
[1] = test system: HCC-2998 colon
[2] = test system: SNB-19 CNS
[3] = test system: KM12 colon
[4] = test system: UO-31 renal
[5] = test system: K-562 leukemia
[6] = test system: SK-MEL-5 melanoma
[7] = test system: HOP-92 NSCLC
[8] = test system: COLO 205 colon
[9] = test system: EKVX NSCLC
[10] = test system: SF-268 CNS
[11] = test system: ACHN renal
[12] = test system: HT29 colon
[13] = test system: 786-0 renal
[14] = test system: HS 578T breast
[15] = test system: MDA-MB-231 breast
[16] = test system: OVCAR-3 ovarian
[17] = test system: MALME-3M melanoma
[18] = test system: NCI-H460 lung
[19] = test system: DU-145 prostate
[20] = test system: OVCAR-4 ovarian
[21] = test system: OVCAR-8 ovarian
[22] = test system: SR leukemia
[23] = test system: SK-OV-3 ovarian
[24] = test system: RXF 393 renal
[25] = test system: BT-549 breast
[26] = test system: MOLT-4 leukemia
[27] = test system: TK-10 renal
[28] = test system: CCRF-CEM leukemia
[29] = test system: NCI/ADR-RES ovarian
[30] = test system: IGROV1 ovarian
[31] = test system: RPMI-8226 leukemia
[32] = test system: PC-3 prostate
[33] = test system: UACC-62 melanoma
[34] = test system: SF-539 CNS
[35] = test system: UACC-257 melanoma
[36] = test system: HCT-116 colon
[37] = test system: CAKI-1 renal
[38] = test system: LOX IMVI melanoma
[39] = test system: M14 melanoma
[40] = test system: MCF7 breast
[41] = test system: T-47D breast
[42] = test system: HOP-62 NSCLC
[43] = test system: SK-MEL-2 melanoma
[44] = test system: A498 renal
[45] = test system: NCI-H522 lung
[46] = test system: SK-MEL-28 melanoma
[47] = test system: SF-295 CNS
[48] = test system: U251 CNS
[49] = test system: OVCAR-5 ovarian
[50] = test system: NCI-H226 lung
[51] = test system: NCI-H23 lung
[52] = test system: HCT-15 colon
[53] = test system: SN12C renal
[54] = test system: MDA-MB-435
[55] = test system: A549 NSCLC
[56] = test system: MDA-MB-468 breast

`COc1ccc(C(=O)/C=C/c2cccc(Br)c2)cc1S(N)(=O)=O` was tested, and the GI50 [1] was 1.45 µM, the TGI [1] was 2.99 µM and the GI50 [2] was 2.91 µM. It also gave a TGI [2] of 12 µM, a GI50 [3] of 1.33 µM and a TGI [3] of 3.29 µM. The GI50 [4] was 1.29 µM, the TGI [4] was 2.7 µM and the GI50 [5] was 1.35 µM. The TGI [5] was 4.41 µM, the GI50 [6] was 2.31 µM and the TGI [6] was 6.38 µM. For the same molecule, the GI50 [7] was 1.8 µM, the TGI [7] was 11.8 µM and the GI50 [8] was 1.92 µM. It also gave a TGI [8] of 3.51 µM, a GI50 [9] of 5.24 µM and a TGI [9] of 18.5 µM. It also gave a GI50 [10] of 3.02 µM, a TGI [10] of 12.7 µM and a GI50 [11] of 1.67 µM. The TGI [11] was 3.11 µM, the GI50 [12] was 1.61 µM and the TGI [12] was 3.28 µM. For the same molecule, the GI50 [13] was 1.63 µM, the TGI [13] was 3.33 µM and the GI50 [14] was 16 µM. The TGI [14] was 68.6 µM, the GI50 [15] was 2.45 µM and the TGI [15] was 6.75 µM. For the same molecule, the GI50 [16] was 1.29 µM, the TGI [16] was 3.17 µM and the GI50 [17] was 3.19 µM. It also gave a TGI [17] of 14 µM, a GI50 [18] of 3.16 µM and a TGI [18] of 11.4 µM. The GI50 [19] was 3.56 µM, the TGI [19] was 12.8 µM and the GI50 [20] was 4.08 µM. For the same molecule, the TGI [20] was 17.3 µM, the GI50 [21] was 2.28 µM and the TGI [21] was 10.6 µM. The GI50 [22] was 0.732 µM, the TGI [22] was 3.54 µM and the GI50 [23] was 4.06 µM. It also gave a TGI [23] of 15 µM, a GI50 [24] of 1.6 µM and a TGI [24] of 3.2 µM. It also gave a GI50 [25] of 1.51 µM, a TGI [25] of 3.46 µM and a GI50 [26] of 2.17 µM. It also gave a TGI [26] of 4.71 µM, a GI50 [27] of 2.23 µM and a TGI [27] of 11.9 µM. The GI50 [28] was 2.54 µM, the TGI [28] was 6.12 µM and the GI50 [29] was 2.21 µM. It also gave a TGI [29] of 7.13 µM, a GI50 [30] of 2.24 µM and a TGI [30] of 8.6 µM. For the same molecule, the GI50 [31] was 2.05 µM, the TGI [31] was 5.52 µM and the GI50 [32] was 2.02 µM. For the same molecule, the TGI [32] was 4.93 µM, the GI50 [33] was 1.68 µM and the TGI [33] was 3.89 µM. The GI50 [34] was 1.69 µM, the TGI [34] was 3.44 µM and the GI50 [35] was 3.27 µM. It also gave a TGI [35] of 14.5 µM, a GI50 [36] of 1.04 µM and a TGI [36] of 2.21 µM. For the same molecule, the GI50 [37] was 2.28 µM, the TGI [37] was 7.89 µM and the GI50 [38] was 1.24 µM. It also gave a TGI [38] of 2.48 µM, a GI50 [39] of 1.81 µM and a TGI [39] of 4.64 µM. The GI50 [40] was 1.58 µM, the TGI [40] was 5.22 µM and the GI50 [41] was 2.13 µM. The TGI [41] was 6.01 µM, the GI50 [42] was 2.05 µM and the TGI [42] was 5.74 µM. The GI50 [43] was 8.73 µM, the TGI [43] was 21.9 µM and the GI50 [44] was 13.8 µM. The TGI [44] was 27 µM, the GI50 [45] was 1.63 µM and the TGI [45] was 3.23 µM. For the same molecule, the GI50 [46] was 2.15 µM, the TGI [46] was 5.46 µM and the GI50 [47] was 2.09 µM. It also gave a TGI [47] of 6.44 µM, a GI50 [48] of 1.34 µM and a TGI [48] of 2.69 µM. For the same molecule, the GI50 [49] was 1.74 µM, the TGI [49] was 4.25 µM and the GI50 [50] was 2.81 µM. The TGI [50] was 11.4 µM, the GI50 [51] was 1.77 µM and the TGI [51] was 3.43 µM. For the same molecule, the GI50 [52] was 1.01 µM, the TGI [52] was 2.39 µM and the GI50 [53] was 1.44 µM. It also gave a TGI [53] of 3.48 µM, a GI50 [54] of 2.06 µM and a TGI [54] of 7.14 µM. The GI50 [55] was 2.82 µM, the TGI [55] was 10.2 µM and the GI50 [56] was 1.39 µM. The TGI [56] was 2.87 µM.
